{"source": "patent US10640748B2", "about": "“Oligodendroglial cell culturing methods and in methods for treating neurodegenerative disorders by using thyroid hormones or analogues” (NeuOrphan Pty Ltd, priority 2014, dated 2020)", "system": "rat retinal ganglion cells (RGCs) and Nkx2.1-GFP+ sorted OPCs", "test": "Co-culture and myelination assay with rat RGC and hESC-derived OPCs", "assay_type": "cell-based, rat; human", "from_the_text": "Retinae were dissected from P6 Sprague-Dawley rat pups (AEC #1121/2011/M). RGCs were purified according to the published immunopanning protocol (Deliyanti and Wilkinson-Berka, 2015; Watkins et al., 2008). Details of the RGC preparation are described in Supplemental Experimental Procedure. The RGC growth medium was changed every third day and cultures were maintained for 9 days. Pre-OLs from Nkx2.1-GFP+ cells at stage VI day 10, were FACS sorted according to O4 antibody labeling. O4+ sorted cells were then co-cultured with RGCs at a density of 20,000/well under 3 different conditions: T3 with 0.01% ethanol, 10 ng/mL DITPA, and 40 ng/mL T3 with DITPA in myelination medium (see Supplemental Experimental Procedure). The medium was changed every 3 days and all co-cultures were fixed after 7 days, followed by immunocytochemistry. Cells were stained with a monoclonal rat anti-mCherry (Life Technologies, M11217, 1:1,000); monoclonal mouse anti-NF-200 (Sigma-Aldrich, N0142, 1:200); and polyclonal rabbit anti-MBP (Millipore, AB980, 1:200). Followed by incubation of appropriate Alexa Fluor-labeled secondary antibodies (Life technologies).\nIn RGC-OPC co-cultures, myelin segments were counted manually. 10 fields (×20 objective) were randomly selected and captured from each coverslip with a confocal microscope (Nikon A1 inverted). For representative images, 10 z-stack images (0.25 μm intervals) were captured, analysed and processed for 3D volume rendering by Imaris version 7.6.4. OLs were scored according to their morphology and defined as either “resting” (processes not touching axons); “contacting” (processes touching axons but not wrapping); and “ensheathing” (processes aligned with and wrapping axons). A myelination index (i.e. axons myelinated) was calculated by: the number of MBP+ membrane, ensheathing the NF200+ axons/the total number of NF200+ axons.\nThe dissected retinae were digested using papain dissociation system according to the manufacturer's protocol (Worthington). […]", "data": [{"smiles": "O=C(O)CCc1cc(I)c(Oc2ccc(O)cc2)c(I)c1", "note": "[DITPA, 3,5-Diiodothyropropionic acid]", "values": [{"measurement": "percentage of myelination (number of myelinated axons/total number of axons)", "setting": "7 days co-culture, 10 ng/mL DITPA, compared with T3 alone", "value": "significantly enhanced"}, {"measurement": "contacting or ensheathing MBP+ OLs", "setting": "7 days co-culture, 10 ng/mL DITPA, versus T3 alone", "value": "more"}, {"measurement": "myelination of rat retinal ganglion cells", "setting": "FIG. 6", "value": "Depicts an experiment which shows that DITPA promotes the myelination of rat"}]}]}
